Results published in US9808434B2, “Compound for treating cancer and diabetes” (CITY OF HOPE, priority 2011, dated 2017).

What was measured:
[1] = system: ACL, adiponectin, C/EBPα, Glut4, PPARγ; experiment: Adipogenic marker protein expression, Western blotting; format: cell-based, mouse; conditions: 7 days in DM + compound
Procedure: Post-confluent 3T3-L1 preadipocytes were differentiated for 7 days in the presence of differentiating media (DM), or DM+ test compounds (LR23 (5 μM, 25 μM, or 50 μM), LR59 (5 μM, 25 μM, or 50 μM), LR-90 (25 μM), ROS (50 μM), TSA (0.5 μM) or apicidin (1 μM)). Protein levels were analyzed by Western blotting and the relative expression of each protein was quantified using a densitometer and calculated according to the reference bands of β-actin (FIG. 8). Numbers above each blot represent fold increase over control (undifferentiated preadipocytes).
3T3-L1 preadipocytes cells were treated with differentiating media (DM) with COH-SR4 (1 μM, 3 μM, or 5 μM) or without for 7 days. […] As used in FIG. 9C, U=undifferentiated, D=differentiated with cocktail media.

U251 = experiment: Glioma ATP viability assay, U251; format: cell-based; conditions: Homo sapiens, U-251, 72 h
Procedure: (§1) Cells of each cell line (U251, U87, PBT-017, PBT018, PBT003 and PBT028) were treated with various concentrations (0˜100 μM) of COH-SR4 for 72 hours. Cell viabilities were determined by ATP viability assays. Data were represented as a ratio to vehicle (DMSO) control, and plotted as mean±SEM (n=12) obtained from 2˜3 experiments (FIG. 34A).
as §1, with “(U87, U251,” for “(U251, U87, PBT-017, PBT018,”, “PVT-017)” for “PBT028)”, “2-3” for “2˜3”, “34B).” for “34A).”
Cells of each cell line were treated with various concentrations (0˜100 μM) of COH-SR4 or various concentrations (0˜1000 μM) of TMZ for 72 hours. Cell viabilities were determined by ATP viability assays. Data were represented as a ratio to untreated cells as control, and plotted as mean±SEM (n=12) obtained from 2˜3 experiments (FIGS. 43A-B).

B16-F0 melanoma = format: in vivo
Procedure: For melanoma studies, C57B mice (for syngeneic B16-F0 mouse melanoma model) and Hsd: Athymic nude nu/nu mice (for A2058 human melanoma mouse xenografts model), were obtained from Harlan, Indianapolis, Ind. All animal experiments were carried out in accordance with a protocol approved by the Institutional Animal Care and Use Committee (IACUC). In each model, ten 10-weeks-old mice were divided into two groups of 5 animals (treated with corn oil (vehicle), and COH-SR4 compound 4 mg/kg b.w.). All animals were injected with 2×10^6 melanoma cells suspensions in 100 μL of PBS, subcutaneously into one flank of each mouse. Treatment was started 10 days after the implantation to see palpable tumor growth. Treatment consisted of 0.1 mg of COH-SR4/mice in 200 μL corn oil by oral gavage alternate day. Control groups were treated with 200 μL corn oil by oral gavage alternate days. Animals were examined daily for signs of tumor growth. Tumors were measured in two dimensions using calipers. Photographs of animals were taken at day 1, day 10, day 14, day 18, day 20, day 30, and day 51 after subcutaneous injection, are shown for all groups. Photographs of tumors were also taken at day 20 (for syngeneic model), and at day 51 (for xenograft model).
C57B mice for syngeneic model were obtained from Harlan, Indianapolis, Ind. All animal experiments were carried out in accordance with a protocol approved by the Institutional Animal Care and Use Committee (IACUC). Ten 10-weeks-old mice were divided into two groups of 5 animals (treated with corn oil (vehicle), and COH-SR4 4 mg/kg body weight). All 10 animals were injected with 1×10^6 mouse melanoma cells (B16-F0) suspensions in 100 μL of PBS, subcutaneously into one flank of each mouse. Treatment was started 10 days after the B16 melanoma cells implantation to see palpable tumor growth. Treatment consisted of 0.1 mg of COH-SR4/mice in 200 μL corn oil by oral gavage alternate day. Control groups were treated with 200 μL corn oil by oral gavage alternate day. Animals were examined daily for signs of tumor growth, and body weights were recorded. Tumors were measured in two dimensions using calipers. Photographs of animals were taken at day 1, day 10, day 14, day 18, and day 20 after subcutaneous injection, are shown for all groups. Photographs of tumors were also taken at day 20.
C57B mice (for syngeneic B16-F0 mouse melanoma model) and Hsd: Athymic nude nu/nu mice (for A2058 human melanoma mouse xenografts model), were used for testing the impact of oral administration of COH-SR4 on melanoma progression in vivo models. In each model, ten 10-weeks-old mice were divided into two groups of 5 animals (treated with corn oil (vehicle), and COH-SR4 compound (4 mg/kg b.w.). All animals were injected with 2×10^6 melanoma cells suspensions in 100 μL of PBS, subcutaneously into one flank of each mouse. Treatment was started 10 days after the implantation of melanoma cells. Treatment consisted of 0.1 mg of COH-SR4/mice in 200 μL corn oil by oral gavage on alternate days. Control groups were treated with 200 μL corn oil by oral gavage alternate day. Animals were examined daily for signs of tumor growth and body weights were recorded. […] Animals were examined daily for signs of tumor growth. Tumors were measured in two dimensions using calipers. […] Tumors were measured in two dimensions using calipers and time-course analysis of tumor regression was performed during the study. […]

O=C(Nc1cc(Cl)cc(Cl)c1)Nc1cc(Cl)cc(Cl)c1 [COH-SR4, 1,3-bis(3,5-dichlorophenyl) urea] was tested, and the “expression of adipogenic markers” value [1] was “decreased expression of key transcription factors (C/EBPα, PPARγ) and proteins (ACL, adiponectin, FAS)”, the IC50 (U251; Table 1) was 2.1 µM and the IC50 (U251; Table 2) was 2 µM. For the same compound, the “tumor cross-section areas compared to corn oil” value (B16-F0 melanoma; Example 16, 4 mg/kg oral gavage alternate day) was “significantly smaller”, the day of death (B16-F0 melanoma; Example 16, 4 mg/kg, corn oil only died on day 20) was 48 days and the “tumor weights compared to corn oil” value (B16-F0 melanoma; Example 16, day 20) was “significantly smaller”. The tumor weight (B16-F0 melanoma; Example 22, day 20, control 2.36±0.2 g) was 1.07 ± 0.2 g and the survival (B16-F0 melanoma; Example 22, vehicle censored by day 20±2) was 50 ± 5 days.
